The results in this text go back to ChEMBL document CHEMBL1201862, “PubChem BioAssay data set” (2004).

Holding throughout (test): growth of human tumour cells (NCI), 48 h
For experiment [1], the system named is SNB-19.
Experiment [2] has as its system NCI-H460.
Experiment [3] has as its system UACC-257.
Experiment [4] concerns HOP-62.
Experiment [5] has as its system K562.
Experiment [6] has as its system CCRF-CEM.
Experiment [7] concerns SK-MEL-5.
The test system of experiment [8] is Malme-3M.
Experiment [9] deals with MCF7.
Experiment [10] relates to RXF 393.
Experiment [11] relates to SF-268.
The subject of experiment [12] is UACC-62.
The test system of experiment [13] is MOLT-4.
Experiment [14] deals with A498.
Experiment [15] concerns HL-60.
Experiment [16] concerns SNB-75.
For experiment [17], the system named is OVCAR-5.
Experiment [18] deals with SF-295.
The subject of experiment [19] is ACHN.
Experiment [20] relates to TK-10.

Structures are written as SMILES.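 48-hour exposure; five concentrations; linearly interpolated endpoints. Abbreviation: GI50, concentration required for 50% inhibition of growth.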 Activity calls are given as the source filed them. Rule as the data show it: active = GI50 up to about 1.1 µM and inactive = higher.

Regarding `Cc1c2ccnc(C(F)(F)F)c2cc2c1[nH]c1ccccc12`, the GI50 in experiment [1] was 118 µM (inactive); in experiment [2], 123 µM (inactive); in experiment [3], > 125 µM (inactive); in experiment [4], 73.3 µM (inactive); in experiment [5], > 125 µM (inactive); in [6], > 125 µM (inactive). Moreover, the GI50 in experiment [7] is > 125 µM (inactive); in [8], 98.2 µM (inactive); in experiment [9], 17.1 µM (inactive); in experiment [10], 16.6 µM (inactive); in experiment [11] it was 101 µM (inactive); in experiment [12] it was > 125 µM (inactive). The GI50 in experiment [13] was 85.1 µM (inactive); in experiment [14] it was 11.4 µM (inactive); in experiment [15], > 125 µM (inactive); in [16] it was 64 µM (inactive); in [17], > 125 µM (inactive); in experiment [18], 23.2 µM (inactive).

On to `COc1cc(Nc2nc3cc(C(F)(F)F)ccc3n3cccc23)cc(OC)c1OC`, for which the GI50 in experiment [1] was > 100 µM (inactive); in [3] it was > 100 µM (inactive); in experiment [19] it was > 100 µM (inactive); in [4], > 100 µM (inactive); in experiment [5] it was > 100 µM (inactive); in experiment [6], 4.54 µM (inactive). Besides, the GI50 is 26.7 µM (inactive) in [7]; > 100 µM (inactive) in experiment [8]; > 100 µM (inactive) in experiment [9]; 3.93 µM (inactive) in experiment [10]; > 100 µM (inactive) in experiment [11]; > 100 µM (inactive) in experiment [12]. Moreover, the GI50 in [13] was 8.49 µM (inactive); in experiment [14], > 100 µM (inactive); in experiment [20], > 100 µM (inactive); in experiment [15], 0.762 µM (active); in experiment [16], > 100 µM (inactive); in [17] it was > 100 µM (inactive). Moreover, the GI50 in [18] is 5.02 µM (inactive).

`CCCn1c(CN(Cc2nc3ccccc3n2CCC)Cc2nc3ccccc3n2CCC)nc2ccccc21`: the GI50 in experiment [1] is 7.01 µM (inactive); in experiment [2], 3.27 µM (inactive); in experiment [3] it was 7.36 µM (inactive); in experiment [19] it was 2.11 µM (inactive); in experiment [4], 10.8 µM (inactive); in experiment [5] it was 1.23 µM (inactive). The GI50 was 2.76 µM (inactive) in experiment [6]; 2.55 µM (inactive) in experiment [7]; 4.94 µM (inactive) in experiment [8]; 0.973 µM (active) in experiment [9]; 0.249 µM (active) in experiment [10]; 3.99 µM (inactive) in experiment [11]. In addition, the GI50 was 3.7 µM (inactive) in experiment [12]; 3.21 µM (inactive) in experiment [13]; 4.74 µM (inactive) in [14]; 15.7 µM (inactive) in experiment [20]; 0.764 µM (active) in [15]; 6.79 µM (inactive) in [16]. Besides, the GI50 is 6.07 µM (inactive) in [17] and 8.55 µM (inactive) in experiment [18].

`CC(O)C(O)C(N)CC=O` (stereo not drawn): the GI50 in experiment [1], in [2], in experiment [3], in [4], in experiment [5] and in experiment [6] was > 500 µM (inactive) throughout. The GI50 in experiment [7], in [8], in experiment [9], in experiment [10], in experiment [11] and in experiment [12] was > 500 µM (inactive) each time. The GI50 in experiment [13] is > 500 µM (inactive); in [14], 36.1 µM (inactive); in experiment [15], 495 µM (inactive); in [16], > 500 µM (inactive); in [17] it was 175 µM (inactive); in [18], > 500 µM (inactive).

Turning to `COc1cccc(N/C(C)=C2/CCOC2=O)c1`, the GI50 was > 10 µM (inactive) in experiment [1]; > 10 µM (inactive) in experiment [2]; 5.33 µM (inactive) in [19]; > 10 µM (inactive) in [4]; > 10 µM (inactive) in [6]; > 10 µM (inactive) in experiment [7]. The GI50 in experiment [8], in [9], in [10], in experiment [11], in experiment [12] and in experiment [13] was > 10 µM (inactive) each time. Also, the GI50 in experiment [14], in experiment [20], in [15], in experiment [16], in experiment [17] and in experiment [18] was > 10 µM (inactive) throughout.

With `O=S1(=O)CS(=O)(=O)OCCCO1`, the GI50 was > 100 µM (inactive) in experiment [1]; 27.3 µM (inactive) in [2]; > 100 µM (inactive) in experiment [3]; 52.1 µM (inactive) in experiment [19]; > 100 µM (inactive) in [4]; > 100 µM (inactive) in experiment [5]. Moreover, the GI50 in experiment [6] is 63.8 µM (inactive); in [7] it was > 100 µM (inactive); in [8] it was > 100 µM (inactive); in experiment [9], 97.1 µM (inactive); in [10], > 100 µM (inactive); in experiment [11], > 100 µM (inactive). For the same compound, the GI50 in experiment [12] was > 100 µM (inactive); in experiment [13] it was 51.3 µM (inactive); in [14], > 100 µM (inactive); in [20] it was > 100 µM (inactive); in experiment [15], 59 µM (inactive); in experiment [16], 51.8 µM (inactive). In addition, the values for the GI50 in [17] and in experiment [18] were > 100 µM (inactive) and 54.1 µM (inactive), respectively.

As for `CCCSc1ccc2[nH]c(N3C(=O)/C(=C/c4cc(OC)c(OC)c(OC)c4)N=C3c3ccccc3)cc2c1`, the GI50 was 0.681 µM (active) in experiment [1]; 12.5 µM (inactive) in [2]; 13.8 µM (inactive) in experiment [3]; 23 µM (inactive) in experiment [19]; 1.39 µM (inactive) in [4]; 8.43 µM (inactive) in [5]. The GI50 in experiment [6] was 7.94 µM (inactive); in experiment [7], 7.53 µM (inactive); in experiment [8], 13.9 µM (inactive); in experiment [9], 12.6 µM (inactive); in experiment [10], 7.73 µM (inactive); in experiment [11], 11 µM (inactive). Besides, the GI50 in [12] is 8.61 µM (inactive); in experiment [13] it was 10.9 µM (inactive); in experiment [14] it was 0.871 µM (active); in experiment [20], 17 µM (inactive); in experiment [15], 5.66 µM (inactive); in experiment [16] it was 10.8 µM (inactive). The GI50 in [17] was 17.7 µM (inactive); in experiment [18], 1.25 µM (inactive).
